Laboratory results reported in paper PMC6272134, “Bioavailability Enhancement of Paclitaxel via a Novel Oral Drug Delivery System: Paclitaxel-Loaded Glycyrrhizic Acid Micelles” (Molecules, 2015).
In brackets after ≈: the same amount, converted by molar mass. Where two headings read alike, the source gives them in different places.

Legend:
cell membranes = system: cell membranes; set-up: method as in PMID 24870200; conditions: cited from earlier work
[1] = set-up: method as in PMID 19929808; conditions: cited from earlier work
P-gp = system: P-gp; set-up: method as in PMID 16904803; conditions: in vitro study; cited from earlier work
CYP3A = system: CYP3A; set-up: method as in PMID 12584850; conditions: rat liver microsomes; cited from earlier work
CYP1A1 = system: CYP1A1; set-up: method as in PMID 12584850; conditions: rat liver microsomes; cited from earlier work
CYP2E1 = system: CYP2E1; set-up: method as in PMID 12584850; conditions: rat liver microsomes; cited from earlier work
[2] = Phase-solubility test of PTX in GA / ethanol-water solutions; assay type: physicochemical
Protocol: The phase-solubility test was performed with a previously reported method. An excess quantity of PTX was taken into clean and dry vials containing 1 mL of various concentrations of GA solutions ([…]). […] Ultimately, the samples were filtered through 0.45 μm filters and the concentrations of PTX were detected by high performance liquid chromatography (HPLC; LC-20A, Shimadzu, Japan) (see Section 3.3.6.). All tests were repeated at least three times.

[3] = set-up: method as in PMID 11879753; conditions: cited from earlier work
[4] = set-up: method as in PMID 7939764; conditions: cited from earlier work

solubility at 48 h ([2]; 10 mM GA solution in water, aqueous with cosolvent or surfactant or cyclodextrin, thermodynamic from solid, water, in the presence of 10 mM GA, 25 °C, read-out: solubility of PTX) [µg/mL]	solubility at 48 h ([2]; 7.5% ethanol in water with 10 mM GA, 25 °C, aqueous with cosolvent or surfactant or cyclodextrin, thermodynamic from solid, optimal ethanol percentage (7.5%) with GA (10 mM), read-out: PTX solubility) [µg/mL]	solubility increase ([2]; 7.5% ethanol with GA vs solubility of PTX in water)	solubility at 48 h ([2]; ethanol-water mixtures without GA, 0%, 5%, 7.5%, 10% and 25% ethanol in water, without GA, read-out: solubility of PTX in different percentages of ethanol) [µg/mL]	solubility at 48 h ([2]; water, absence of GA, 25 °C, read-out: solubility of PTX in water) [µg/mL]	Structure (SMILES)	increase of the permeability of cell membranes (cell membranes)	critical micelle concentration [1]	inhibition of the function of P-gp (P-gp)	inhibitor of CYP3A (CYP3A)	inhibitor of CYP1A1 (CYP1A1)	inhibitor of CYP2E1 (CYP2E1)	aqueous solubility [3] [µg/mL]	oral bioavailability [4] [%]
					CC1(C)[C@@H](O[C@H]2O[C@H](C(=O)O)[C@@H](O)[C@H](O)[C@H]2O[C@@H]2O[C@H](C(=O)O)[C@@H](O)[C@H](O)[C@H]2O)CC[C@]2(C)[C@H]3C(=O)C=C4[C@@H]5C[C@@](C)(C(=O)O)CC[C@]5(C)CC[C@@]4(C)[C@]3(C)CC[C@@H]12 [GA, Glycyrrhizic acid]	about 60%	10^−3 M	inhibited the function of P-gp	inhibitor	inhibitor	inhibitor		
124	823 ± 14.4 (≈ 964 µM)	more than 1,000 fold	≤ 30	~0.67 (≈ 0.785 µM)	CC(=O)O[C@H]1C(=O)[C@@]2(C)[C@H]([C@H](OC(=O)c3ccccc3)[C@]3(O)C[C@H](OC(=O)[C@H](O)[C@@H](NC(=O)c4ccccc4)c4ccccc4)C(C)=C1C3(C)C)[C@]1(OC(C)=O)CO[C@@H]1C[C@@H]2O [PTX, Paclitaxel]							< 1	< 2
